Assay results from ChEMBL document CHEMBL4308841, “Synthesis, in vitro antiproliferative activity, and kinase inhibitory effects of pyrazole-containing diarylureas and diarylamides” (Eur J Med Chem, 2018).

Columns and labels:
SW-620 = test: Growth inhibition of human SW620 cells assessed as cell growth at 0.1 uM incubated for 48 hrs by sulforhodamine B assay relative to control; assay type: functional; settings: SW-620, 48 h, read-out: Activity
IGROV-1 = test: Growth inhibition of human IGROV1 cells assessed as cell growth at 0.1 uM incubated for 48 hrs by sulforhodamine B assay relative to control; assay type: functional; settings: IGROV-1, 48 h, read-out: Activity
SK-OV-3 = test: Growth inhibition of human SKOV3 cells assessed as cell growth at 0.01 uM incubated for 48 hrs by sulforhodamine B assay relative to control; assay type: functional; settings: SK-OV-3, 48 h, read-out: Activity
OVCAR-3 = test: Growth inhibition of human OVCAR3 cells assessed as cell growth at 0.1 uM incubated for 48 hrs by sulforhodamine B assay relative to control; assay type: functional; settings: OVCAR-3, 48 h, read-out: Activity
SK-MEL-2 = test: Growth inhibition of human SK-MEL-2 cells assessed as cell growth at 0.1 uM incubated for 48 hrs by sulforhodamine B assay relative to control; assay type: functional; settings: SK-MEL-2, 48 h, read-out: Activity
SN12C = test: Growth inhibition of human SN12C cells assessed as cell growth at 0.01 uM incubated for 48 hrs by sulforhodamine B assay relative to control; assay type: functional; settings: read-out: Activity
K562 = test: Growth inhibition of human K562 cells assessed as cell growth at 0.01 uM incubated for 48 hrs by sulforhodamine B assay relative to control; assay type: functional; settings: K562, 48 h, read-out: Activity
SNB-75 [1] = test: Growth inhibition of human SNB75 cells assessed as cell growth at 0.01 uM incubated for 48 hrs by sulforhodamine B assay relative to control; assay type: functional; settings: SNB-75, 48 h, read-out: Activity
NCI-H522 [2] = test: Growth inhibition of human NCI-H522 cells assessed as cell growth at 10 uM incubated for 48 hrs by sulforhodamine B assay relative to control; assay type: functional; settings: NCI-H522, 48 h, read-out: Activity
SNB-19 = test: Growth inhibition of human SNB19 cells assessed as cell growth at 1 uM incubated for 48 hrs by sulforhodamine B assay relative to control; assay type: functional; settings: SNB-19, 48 h, read-out: Activity
NCI-H522 [3] = test: Growth inhibition of human NCI-H522 cells incubated for 48 hrs by sulforhodamine B assay; assay type: functional, cell-based; settings: NCI-H522, 48 h
SNB-75 [4] = test: Growth inhibition of human SNB75 cells assessed as cell growth at 100 uM incubated for 48 hrs by sulforhodamine B assay relative to control; assay type: functional; settings: SNB-75, 48 h, read-out: Activity
SF-295 = test: Growth inhibition of human SF295 cells assessed as cell growth at 0.01 uM incubated for 48 hrs by sulforhodamine B assay relative to control; assay type: functional; settings: SF-295, 48 h, read-out: Activity
A549 = test: Growth inhibition of human A549/ATCC cells assessed as cell growth at 0.01 uM incubated for 48 hrs by sulforhodamine B assay relative to control; assay type: functional; settings: A549, 48 h, read-out: Activity
U-251 = test: Growth inhibition of human U251 cells incubated for 48 hrs by sulforhodamine B assay; assay type: functional, cell-based; settings: U-251, 48 h
RPMI-8226 [5] = test: Growth inhibition of human RPMI8226 cells assessed as cell growth at 100 uM incubated for 48 hrs by sulforhodamine B assay relative to control; assay type: functional; settings: RPMI-8226, 48 h, read-out: Activity
ACHN [6] = test: Growth inhibition of human ACHN cells assessed as cell growth at 100 uM incubated for 48 hrs by sulforhodamine B assay relative to control; assay type: functional; settings: read-out: Activity
RPMI-8226 [7] = test: Growth inhibition of human RPMI8226 cells incubated for 48 hrs by sulforhodamine B assay; assay type: functional, cell-based; settings: RPMI-8226, 48 h
NCI/ADR-RES = test: Growth inhibition of human NCI/ADR-RES cells assessed as cell growth at 0.01 uM incubated for 48 hrs by sulforhodamine B assay relative to control; assay type: functional; settings: read-out: Activity
SK-MEL-5 = test: Growth inhibition of human SK-MEL-5 cells incubated for 48 hrs by sulforhodamine B assay; assay type: functional, cell-based; settings: SK-MEL-5, 48 h
LOX IMVI = test: Growth inhibition of human LOXIMVI cells incubated for 48 hrs by sulforhodamine B assay; assay type: functional
DU-145 = test: Growth inhibition of human DU145 cells assessed as cell growth at 1 uM incubated for 48 hrs by sulforhodamine B assay relative to control; assay type: functional; settings: DU-145, 48 h, read-out: Activity
ACHN [8] = test: Growth inhibition of human ACHN cells incubated for 48 hrs by sulforhodamine B assay; assay type: functional, cell-based
NCI-H23 = test: Growth inhibition of human NCI-H23 cells assessed as cell growth at 0.01 uM incubated for 48 hrs by sulforhodamine B assay relative to control; assay type: functional; settings: NCI-H23, 48 h, read-out: Activity
MDA-MB-435 = test: Growth inhibition of human MDA-MB-435 cells assessed as cell growth at 1 uM incubated for 48 hrs by sulforhodamine B assay relative to control; assay type: functional; settings: MDA-MB-435, 48 h, read-out: Activity
SR = test: Growth inhibition of human SR cells incubated for 48 hrs by sulforhodamine B assay; assay type: functional, cell-based
OVCAR-5 = test: Growth inhibition of human OVCAR5 cells assessed as cell growth at 0.1 uM incubated for 48 hrs by sulforhodamine B assay relative to control; assay type: functional; settings: OVCAR-5, 48 h, read-out: Activity
UACC-257 = test: Growth inhibition of human UACC257 cells assessed as cell growth at 0.1 uM incubated for 48 hrs by sulforhodamine B assay relative to control; assay type: functional; settings: UACC-257, 48 h, read-out: Activity
[9] = read-out: LC50 (the source's name)
[10] = read-out: pLC50 (the source's name) (converted)

`O=C(Nc1cccc(-n2cc(-c3ccncc3)c(-c3cc(O)cc(Cl)c3)n2)c1)c1ccc(N2CCOCC2)c(C(F)(F)F)c1` gave a growth at 0.1 µM (SW-620) of 105%, a growth at 0.1 µM (IGROV-1) of 103% and a growth at 0.01 µM (SK-OV-3) of 102%. The growth at 0.1 µM (OVCAR-3) was 113%, the growth at 0.1 µM (SK-MEL-2) was 101% and the growth at 0.01 µM (SN12C) was 94%. The growth at 0.01 µM (K562) was 113%, the growth at 0.01 µM (SNB-75 [1]) was 57% and the growth at 10 µM (NCI-H522 [2]) was 18.8%. The growth at 1 µM (SNB-19) was 90%, the GI50 (NCI-H522 [3]; read-out: GI50) was 0.934 µM and the CC50 (NCI-H522 [3]; [9]) was over 100 µM. For the same compound, the TGI (NCI-H522 [3]; read-out: TGI) was 12.1 µM, the GI50 (NCI-H522 [3]; read-out: pGI50 (converted)) was 0.933 µM and the CC50 (NCI-H522 [3]; [10]) was over 100 µM. For the same compound, the TGI (NCI-H522 [3]; read-out: pTGI (converted)) was 12 µM, the growth at 100 µM (SNB-75 [4]) was 1% and the growth at 0.01 µM (SF-295) was 97%. It also gave a growth at 0.01 µM (A549) of 103%, an IC50 (U-251) of 1.4 µM and a GI50 (U-251; read-out: GI50) of 1.43 µM. The CC50 (U-251; [9]) was 44 µM, the TGI (U-251; read-out: TGI) was 6.3 µM and the GI50 (U-251; read-out: pGI50 (converted)) was 1.41 µM. The CC50 (U-251; [10]) was 43.7 µM, the TGI (U-251; read-out: pTGI (converted)) was 6.31 µM and the growth at 100 µM (RPMI-8226 [5]) was -32%. It also gave a growth at 100 µM (ACHN [6]) of -20%, an IC50 (RPMI-8226 [7]) of 0.4 µM and a GI50 (RPMI-8226 [7]; read-out: GI50) of 0.396 µM. The CC50 (RPMI-8226 [7]; [9]) was over 100 µM, the TGI (RPMI-8226 [7]; read-out: TGI) was 23.1 µM and the GI50 (RPMI-8226 [7]; read-out: pGI50 (converted)) was 0.398 µM. It also gave a CC50 (RPMI-8226 [7]; [10]) of over 100 µM, a TGI (RPMI-8226 [7]; read-out: pTGI (converted)) of 2.29 µM and a growth at 0.01 µM (NCI/ADR-RES) of 101%. For the same compound, the GI50 (SK-MEL-5; read-out: GI50) was 2.33 µM, the CC50 (SK-MEL-5; [9]) was 45.4 µM and the TGI (SK-MEL-5; read-out: TGI) was 84.9 µM. It also gave a GI50 (SK-MEL-5; read-out: pGI50 (converted)) of 2.34 µM, a CC50 (SK-MEL-5; [10]) of 46.8 µM and a TGI (SK-MEL-5; read-out: pTGI (converted)) of 8.51 µM. It also gave a GI50 (LOX IMVI; read-out: GI50) of 1.03 µM, a CC50 (LOX IMVI; [9]) of over 100 µM and a TGI (LOX IMVI; read-out: TGI) of 48.1 µM. It also gave a GI50 (LOX IMVI; read-out: pGI50 (converted)) of 1.02 µM, a CC50 (LOX IMVI; [10]) of over 100 µM and a TGI (LOX IMVI; read-out: pTGI (converted)) of 4.57 µM. It also gave a growth at 1 µM (DU-145) of 92%, a GI50 (ACHN [8]; read-out: GI50) of 1.54 µM and a CC50 (ACHN [8]; [9]) of over 100 µM. For the same compound, the TGI (ACHN [8]; read-out: TGI) was 29.3 µM, the GI50 (ACHN [8]; read-out: pGI50 (converted)) was 1.82 µM and the CC50 (ACHN [8]; [10]) was over 100 µM. For the same compound, the TGI (ACHN [8]; read-out: pTGI (converted)) was 29.5 µM, the growth at 0.01 µM (NCI-H23) was 105% and the growth at 1 µM (MDA-MB-435) was 54%. It also gave a GI50 (SR; read-out: GI50) of 0.338 µM, a CC50 (SR; [9]) of over 100 µM and a TGI (SR; read-out: TGI) of 15.3 µM. It also gave a GI50 (SR; read-out: pGI50 (converted)) of 0.339 µM, a CC50 (SR; [10]) of over 100 µM and a TGI (SR; read-out: pTGI (converted)) of 1.82 µM. It also gave a growth at 0.1 µM (OVCAR-5) of 90% and a growth at 0.1 µM (UACC-257) of 91%.
